The series concerns human corneal epithelial (HCE) cell line. Description: Cytotoxicity neutral red test. It is filed as cell-based. Particulars: HCE cells, 30 minutes incubation. Here is the method:
A human corneal epithelial (HCE) cell line was cultured in Dulbecco's essential medium (Eurobio, Les Ulis, France) supplemented with 10% fetal calf serum (Eurobio), 1% glutamine (Eurobio) and 1% penicillin and streptomycin (Eurobio). Cultures were maintained at 37° C. in 5% CO2 in a humidified incubator.
All wells were seeded with the same number of cells (9×10^4 cells/mL solution). After 24 hours, the cells reached about 70% to 80% confluency. The cells were washed with PBS and incubated for 30 minutes with 100 μL of gels in situ. […] The cells were then washed with PBS. A neutral red test was performed immediately after incubation and after 24 hours of recovery in the culture medium. The experiments were performed in triplicate.
The neutral red test (Fluka, Buchs, Switzerland) is a cell viability test based on the ability of viable cells to incorporate neutral red, which is a weak cationic dye that readily penetrates cell membranes by nonionic diffusion and accumulates in lysosomes. […] The integrity of the lysosomal membrane is closely related to cell viability and is assessed by neutral red fluorescence (excitation at 535 nm; emission at 600 nm). […] The dye was then released from the cells using 200 μL of lysis solution per well (1% acetic acid, 50% ethanol and 49% H2O), then the fluorescence was measured using a fluorometer for microplates (Safire; Tecan, Lyon, France).

On to `CNC[C@H](O)c1cccc(O)c1` [PHE, phenylephrine], for which the “effect on cell viability” value was “significant cytotoxicity”.

The record behind these values is US12527752B2, “Composition based on gellan gum and phenylephrine, production method and use as an ophthalmic product” (UNITHER PHARMACEUTICALS, priority 2019, dated 2026).
